# Measured values reported in patent US20250230193A1, “CYCLIC COMPOUND HAVING SELECTIVE KRAS INHIBITORY EFFECT ON HRAS AND NRAS” (CHUGAI SEIYAKU KABUSHIKI KAISHA, priority 2022, published 2025).
# *1 amine or outer side, *2 acyl side, *3 side chain or, on linkers, in order; H or OH if unused. Where a SMILES comes first, the peptide text is derived from it. Bridges are numbered along the chain shown (N, C = ends). [ ]: non-standard residue; d: D form. The star is where a group is joined. X21 = O=C([C@H](Cc1ccc(C(F)(F)F)cc1)N(CC1CCCC1)[*:1])[*:2]; hPhe(3-Cl-4-CF3) = N[C@@H](CCc1ccc(C(F)(F)F)c(Cl)c1)C(=O)O; NPrPhe(4-CF3) = CCCN[C@@H](Cc1ccc(C(F)(F)F)cc1)C(=O)O; X19 = CCCCN([C@@H](Cc1ccc(C)cc1)C(=O)[*:2])[*:1]; NMeGly(cPent) = CN[C@H](C(=O)O)C1CCCC1; Pro(4,4-F2) = O=C(O)[C@@H]1CC(F)(F)CN1; Hyp = O=C(O)[C@@H]1C[C@@H](O)CN1; NMeD = CN[C@@H](CC(=O)O)C(=O)O; NMeL = CN[C@@H](CC(C)C)C(=O)O; Morpholide = C1CN(*)CCO1; NMeA = CN[C@@H](C)C(=O)O; Ac5c = NC1(C(=O)O)CCCC1; Aze = O=C(O)[C@@H]1CCN1; Ac4c = NC1(C(=O)O)CCC1; NEtG = CCNCC(=O)O; Sar = CNCC(=O)O
# Tests used:
# [1] = target: GDP-bound NRAS wild-type protein (Homo sapiens, UniProt P01111); assay: Binding to NRAS by surface plasmon resonance (SPR), Single Cycle Kinetics
# GDP-bound NRAS wild-type protein, sequence (P01111 whole entry): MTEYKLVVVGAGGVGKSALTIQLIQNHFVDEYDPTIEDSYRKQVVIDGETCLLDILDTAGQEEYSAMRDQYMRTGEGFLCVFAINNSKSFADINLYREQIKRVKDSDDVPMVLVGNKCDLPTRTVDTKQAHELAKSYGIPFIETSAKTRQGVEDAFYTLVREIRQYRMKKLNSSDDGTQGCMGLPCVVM
# [2] = target: GDP-bound HRAS wild-type protein (Homo sapiens, UniProt P01112); assay: Binding to HRAS by surface plasmon resonance (SPR), Single Cycle Kinetics
# GDP-bound HRAS wild-type protein, sequence (P01112 whole entry): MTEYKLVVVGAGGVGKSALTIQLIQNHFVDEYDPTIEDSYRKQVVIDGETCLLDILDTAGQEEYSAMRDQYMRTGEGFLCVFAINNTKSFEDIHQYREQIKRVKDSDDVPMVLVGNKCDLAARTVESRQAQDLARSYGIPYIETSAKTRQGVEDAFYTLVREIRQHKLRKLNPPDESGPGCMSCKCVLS
# [3] = KD ratio, GDP-bound NRAS wild-type vs GDP-bound KRAS wild-type, SPR
# [4] = KD ratio, GDP-bound HRAS wild-type vs GDP-bound KRAS wild-type, SPR
# [5] = SPR, GDP-bound wild-type proteins
# [6] = SPR, GDP-bound NRAS wild-type vs GDP-bound KRAS wild-type
# [7] = SPR, GDP-bound HRAS wild-type vs GDP-bound KRAS wild-type
smiles,measurement,setting,value
CC[C@H](C)[C@@H]1NC(=O)[C@H](CC)N(C)C(=O)C[C@@H](C(=O)N(C)C)N(C)C(=O)[C@H](C2CCCC2)N(C)C(=O)C2(CCC2)N(C)C(=O)[C@@H]2C[C@@H](C)CN2C(=O)[C@H](CCc2cc(F)c(C(F)(F)F)c(F)c2)NC(=O)CN(C)C(=O)[C@H](Cc2ccc(C)cc2)N2CC/C=C\C[C@@H](C2=O)N(C)C(=O)[C@@H]2CCCN2C1=O [PP1789],NRAS/KRAS (ratio of KD value for NRAS to KD value for KRAS),[1]; [3],A (a compound having 10 or more and less than 20 is denoted as A)
same,HRAS/KRAS (ratio of KD value for HRAS to KD value for KRAS),[2]; [4],A (a compound having 10 or more and less than 20 is denoted as A)
"CCCN1C(=O)CN(C)C(=O)CN(CC)C(=O)[C@H]([C@@H](C)CC)NC(=O)[C@H](CC(C)C)N(C)C(=O)C[C@@H](C(=O)N2CCOCC2)N(C)C(=O)[C@H](C2CCCC2)N(C)C(=O)C2(CCCC2)NC(=O)[C@@H]2CC(F)(F)CN2C(=O)[C@H](CCc2ccc(C(F)(F)F)c(Cl)c2)NC(=O)CN(C)C(=O)[C@@H]1Cc1ccc(C(F)(F)F)cc1 [PP0399] ([NMeL]I[NEtG][Sar][NPrPhe(4-CF3)][Sar][hPhe(3-Cl-4-CF3)][Pro(4,4-F2)][Ac5c][NMeGly(cPent)][NMeD]-Morpholide; lactam N-11)",NRAS/KRAS (ratio of KD for GDP-bound NRAS wild-type to KD for KRAS),[1]; SPR,B (a compound having 3 or more and less than 10 is denoted as B)
same,HRAS/KRAS (ratio of KD for GDP-bound HRAS wild-type to KD for KRAS),[2]; SPR,C (A compound having a KD ratio of 0.1 or more and less than 3 is denoted as C)
CCCN1C(=O)CN(C)C(=O)CN(CC)C(=O)[C@H]([C@@H](C)CC)NC(=O)[C@H](CC(C)C)N(C)C(=O)C[C@@H](C(=O)N2CCOCC2)NC(=O)[C@H](C2CCCC2)N(C)C(=O)C2(CCC2)NC(=O)[C@@H]2C[C@@H](OCC)CN2C(=O)[C@H](CCc2ccc(C(F)(F)F)c(Cl)c2)NC(=O)CN(C)C(=O)[C@@H]1Cc1ccc(C(F)(F)F)cc1 [PP0336] ([NMeL]I[NEtG][Sar][NPrPhe(4-CF3)][Sar][hPhe(3-Cl-4-CF3)][Hyp](Et)[Ac4c][NMeGly(cPent)]D-Morpholide; lactam N-11),NRAS/KRAS (ratio of KD for GDP-bound NRAS wild-type to KD for KRAS),[1]; SPR,B (a compound having 3 or more and less than 10 is denoted as B)
same,HRAS/KRAS (ratio of KD for GDP-bound HRAS wild-type to KD for KRAS),[2]; SPR,B (a compound having 3 or more and less than 10 is denoted as B)
CCC[C@H]1C(=O)N[C@@H]([C@@H](C)CC)C(=O)N(C)CC(=O)N(C)[C@H]2C/C=C\CCN(C2=O)[C@@H](Cc2ccc(C)cc2)C(=O)N(C)CC(=O)N[C@@H](CCc2ccc(C(F)(F)F)c(OC)c2)C(=O)N2C[C@H](OCC)C[C@H]2C(=O)NC2(CC(C)(C)C2)C(=O)N(C)[C@@H](CC(F)(F)F)C(=O)N(C)[C@H](C(=O)N(C)C)CC(=O)N1C [PP3007],NRAS/KRAS (ratio of KD value with respect to GDP-bound NRAS wild-type protein to KD value with respect to KRAS),[1]; [5],A (a compound having 10 or more and less than 20 is denoted as A)
same,HRAS/KRAS (ratio of KD value with respect to GDP-bound HRAS wild-type protein to KD value with respect to KRAS),[2]; [5],A (a compound having 10 or more and less than 20 is denoted as A)
CC[C@H](C)[C@@H]1NC(=O)[C@H](CC(C)C)N(C)C(=O)C[C@@H](C(=O)N2CCOCC2)N(C)C(=O)[C@H](C2CCCC2)N(C)C(=O)C2(CCCC2)NC(=O)[C@@H]2CCCN2C(=O)[C@H](CCc2ccc(C(F)(F)F)c(Cl)c2)NC(=O)CN(C)C(=O)[C@H](Cc2ccc(C(F)(F)F)cc2)N(CC2CCCC2)C(=O)[C@@H]2CCN2C(=O)[C@H](C)N(C)C1=O [PP0110] ([NMeL]I[NMeA][Aze][X21][Sar][hPhe(3-Cl-4-CF3)]P[Ac5c][NMeGly(cPent)][NMeD]-Morpholide; lactam N-11),NRAS/KRAS (ratio of KD for GDP-bound NRAS wild-type to KD for KRAS),[1]; SPR,C (A compound having a KD ratio of 0.1 or more and less than 3 is denoted as C)
same,HRAS/KRAS (ratio of KD for GDP-bound HRAS wild-type to KD for KRAS),[2]; SPR,B (a compound having 3 or more and less than 10 is denoted as B)
CCO[C@@H]1C[C@H]2C(=O)NC3(CC(C)(C)C3)C(=O)N(C)[C@@H](C(CC)CC)C(=O)N(C)[C@H](C(=O)N(C)C)CC(=O)N(C)[C@@H](CC3CC3)C(=O)N[C@@H]([C@@H](C)CC)C(=O)N(C)CC(=O)N(C)[C@H]3C/C=C\CCN(C3=O)[C@@H](CC3CCC(F)(F)CC3)C(=O)N(C)CC(=O)N[C@@H](CCc3cc(F)c(C(F)(F)F)c(F)c3)C(=O)N2C1 [PP2485],NRAS/KRAS (ratio of KD value with respect to NRAS to KD value with respect to KRAS),[1]; [6],A (a compound having 10 or more and less than 20 is denoted as A)
same,HRAS/KRAS (ratio of KD value with respect to HRAS to KD value with respect to KRAS),[2]; [7],A (a compound having 10 or more and less than 20 is denoted as A)
CCC[C@H]1C(=O)N[C@@H]([C@@H](C)CC)C(=O)N(C)CC(=O)N(C)[C@H]2C/C=C\CCN(C2=O)[C@@H](Cc2ccc(C(F)(F)F)cc2)C(=O)N(C)CC(=O)N[C@@H](CCc2cc(F)c(C(F)F)c(F)c2)C(=O)N2C[C@H](OCC)C[C@H]2C(=O)NC2(CC(C)(C)C2)C(=O)N(C)[C@@H](C(CC)CC)C(=O)N(C)[C@H](C(=O)N(C)C)CC(=O)N1C [PP2781],NRAS/KRAS (ratio of KD value with respect to GDP-bound NRAS wild-type protein to KD value with respect to KRAS),[1]; class symbols,AA (a compound having 20 or more is denoted as AA)
same,HRAS/KRAS (ratio of KD value with respect to GDP-bound HRAS wild-type protein to KD value with respect to KRAS),[2]; class symbols,A (a compound having 10 or more and less than 20 is denoted as A)
CCO[C@@H]1C[C@H]2C(=O)NC3(CC(C)(C)C3)C(=O)N(C)[C@@H](C(CC)CC)C(=O)N(C)[C@H](C(=O)N(C)C)CC(=O)N(C)[C@@H](CC)C(=O)N[C@@H]([C@@H](C)CC)C(=O)N(C)CC(=O)N(C)[C@H]3C/C=C\CCN(C3=O)[C@@H](Cc3ccc(C(F)(F)F)cc3)C(=O)N(C)CC(=O)N[C@@H](CCc3cc(F)c(C(F)(F)F)c(F)c3)C(=O)N2C1 [PP2062],NRAS/KRAS (ratio of KD value with respect to NRAS to KD value with respect to KRAS),[1]; [6],AA (a compound having 20 or more is denoted as AA)
same,HRAS/KRAS (ratio of KD value with respect to HRAS to KD value with respect to KRAS),[2]; [7],A (a compound having 10 or more and less than 20 is denoted as A)
"CCCN1C(=O)CN(C)C(=O)CNC(=O)[C@H]([C@@H](C)CC)NC(=O)[C@H](CC(C)C)N(C)C(=O)C[C@@H](C(=O)N(C)C)NC(=O)[C@H](C2CCCC2)N(C)C(=O)C2(CCCC2)NC(=O)[C@@H]2CC(F)(F)CN2C(=O)[C@H](CCc2ccc(C(F)(F)F)c(Cl)c2)NC(=O)CN(C)C(=O)[C@@H]1Cc1ccc(C(F)(F)F)cc1 [PP0363] ([NMeL]IG[Sar][NPrPhe(4-CF3)][Sar][hPhe(3-Cl-4-CF3)][Pro(4,4-F2)][Ac5c][NMeGly(cPent)]D-NMe2; lactam N-11)",NRAS/KRAS (ratio of KD for GDP-bound NRAS wild-type to KD for KRAS),[1]; SPR,B (a compound having 3 or more and less than 10 is denoted as B)
same,HRAS/KRAS (ratio of KD for GDP-bound HRAS wild-type to KD for KRAS),[2]; SPR,C (A compound having a KD ratio of 0.1 or more and less than 3 is denoted as C)
CCO[C@@H]1C[C@H]2C(=O)NC3(CC(C)(C)C3)C(=O)N(C)[C@@H](C(CC)CC)C(=O)N(C)[C@H](C(=O)N(C)C)CC(=O)N(C)[C@@H](C)C(=O)N[C@@H]([C@@H](C)CC)C(=O)N(C)CC(=O)N(C)[C@H]3C/C=C\CCN(C3=O)[C@@H](Cc3ccc(C)cc3)C(=O)N(C)CC(=O)N[C@@H](CCc3ccc(Cl)c(Cl)c3)C(=O)N2C1 [PP2186],NRAS/KRAS (ratio of KD value with respect to NRAS to KD value with respect to KRAS),[1]; [6],AA (a compound having 20 or more is denoted as AA)
same,HRAS/KRAS (ratio of KD value with respect to HRAS to KD value with respect to KRAS),[2]; [7],A (a compound having 10 or more and less than 20 is denoted as A)
CCCCN1C(=O)[C@@H]2CCN2C(=O)[C@H](C)N(C)C(=O)[C@H]([C@@H](C)CC)NC(=O)[C@H](CC(C)C)N(C)C(=O)C[C@@H](C(=O)N2CCOCC2)N(C)C(=O)[C@H](C2CCCC2)N(C)C(=O)C2(CCCC2)NC(=O)[C@@H]2CCCN2C(=O)[C@H](CCc2ccc(C(F)(F)F)c(Cl)c2)NC(=O)CN(C)C(=O)[C@@H]1Cc1ccc(C)cc1 [PP0055] ([NMeL]I[NMeA][Aze][X19][Sar][hPhe(3-Cl-4-CF3)]P[Ac5c][NMeGly(cPent)][NMeD]-Morpholide; lactam N-11),NRAS/KRAS (ratio of KD for GDP-bound NRAS wild-type to KD for KRAS),[1]; SPR,C (A compound having a KD ratio of 0.1 or more and less than 3 is denoted as C)
same,HRAS/KRAS (ratio of KD for GDP-bound HRAS wild-type to KD for KRAS),[2]; SPR,C (A compound having a KD ratio of 0.1 or more and less than 3 is denoted as C)
CC[C@H](C)[C@@H]1NC(=O)[C@H](COC)N(C)C(=O)C[C@@H](C(=O)N2CCOCC2)N(C)C(=O)[C@H](C2CCCC2)N(C)C(=O)C2(CCCC2)NC(=O)[C@@H]2CCCN2C(=O)[C@H](CCc2cc(F)c(C(F)(F)F)c(F)c2)NC(=O)CN(C)C(=O)[C@H](Cc2ccc(C(F)(F)F)cc2)N2CCCCC[C@@H](C2=O)N(C)C(=O)CN(C)C1=O [PP0845],NRAS/KRAS (ratio of KD value with respect to NRAS to KD value with respect to KRAS),[1]; [3],B (a compound having 3 or more and less than 10 is denoted as B)
same,HRAS/KRAS (ratio of KD value with respect to HRAS to KD value with respect to KRAS),[2]; [4],B (a compound having 3 or more and less than 10 is denoted as B)
CC[C@H](C)[C@@H]1NC(=O)[C@H](CC(C)C)N(C)C(=O)C[C@@H](C(=O)N2CCOCC2)N(C)C(=O)[C@H](C2CCCC2)N(C)C(=O)C2(CCCC2)NC(=O)[C@@H]2CCCN2C(=O)[C@H](CCc2ccc(C(F)(F)F)c(Cl)c2)NC(=O)CN(C)C(=O)[C@H](Cc2ccc(Cl)cc2)N2CC=CC[C@@H](C2=O)N(C)C(=O)CN(C)C1=O [PP0533],NRAS/KRAS (ratio of KD value with respect to GDP-bound NRAS wild-type protein to KD value with respect to KRAS),[1]; SPR,C (A compound having a KD ratio of 0.1 or more and less than 3 is denoted as C)
same,HRAS/KRAS (ratio of KD value with respect to GDP-bound HRAS wild-type protein to KD value with respect to KRAS),[2]; SPR,C (A compound having a KD ratio of 0.1 or more and less than 3 is denoted as C)
